Laboratory results: patent publication US20180334453A1, “ISOINDOLINE DERIVATIVES” (VIIV HEALTHCARE UK LIMITED, priority 2015, published 2018)
pIC50: −log10 of the molar value.

Each molecule was assayed on HIV (assay: MT4 assay (anti-HIV activity)). Settings: HTLV-1 transformed cell line MT-4; luciferase activity measured 96 hours later (cell titer glo); 10 point dose response.
Assay type: cell-based
Description: Antiviral HIV activity and cytotoxicity values for compounds of the invention from Table 1 were measured in parallel in the HTLV-1 transformed cell line MT-4 based on the method previously described (Hazen et al., 2007, In vitro antiviral activity of the novel, tyrosyl-based human immunodeficiency virus (HIV) type 1 protease inhibitor brecanavir (GW640385) in combination with other antiretrovirals and against a panel of protease inhibitor-resistant HIV (Hazen et al., “In vitro antiviral activity of the novel, tyrosyl-based human immunodeficiency virus (HIV) type 1 protease inhibitor brecanavir (GW640385) in combination with other antiretrovirals and against a panel of protease inhibitor-resistant HIV”, Antimicrob. Agents Chemother. 2007, 51: 3147-3154; and Pauwels et al., “Sensitive and rapid assay on MT-4 cells for the detection of antiviral compounds against the AIDS virus”, J. of Virological Methods 1987, 16: 171-185).
Luciferase activity was measured 96 hours later by adding a cell titer glo (Promega, Madison, Wis.). Percent inhibition of cell protection data was plotted relative to no compound control. Under the same condition, cytotoxicity of the compounds was determined using cell titer Glo™ (Promega, Madison, Wis.). IC50 s were determined from a 10 point dose response curve using 3-4-fold serial dilution for each compound, which spans a concentration range >1000 fold.
These values are plotted against the molar compound concentrations using the standard four parameter logistic equation:
y=((Vmax*x̂n)/(K̂n+x̂n))+Y2
Y2=minimum y n=slope factor
Vmax=maximum y x=compound concentration [M]

Q: With `CCO[C@H](C(=O)O)c1c(C)c2c(c(C)c1-c1cc(F)c3c(c1C)CCCO3)CN(C(=O)c1cccc(F)c1)C2` (atropisomer, axis not shown; (M)) [Example 1, (2S)(M)-2-ethoxy-2-((R)-6-(8-fluoro-5-methylchroman-6-yl)-2-(3-fluorobenzoyl)-4,7-dimethylisoindolin-5-yl)acetic Acid] as the molecule, how does the pIC50 read?
A: Its pIC50 is 6.84.

Q: `Cc1c(-c2c([C@H](OC(C)(C)C)C(=O)O)c(C(F)(F)F)c3c(c2C(F)(F)F)CN(C(=O)c2cccc(F)c2)C3)cc(F)c2c1CCCO2` (atropisomer, axis not shown; (M)) [Example 4, (2S)(M)-2-(tert-butoxy)-2-(6-(8-fluoro-5-methylchroman-6-yl)-2-(3-fluorobenzoyl)-4,7-bisarifluoromethasoindolin-5-yl)acetic Acid] was tested. Which pIC50 did it give?
A: The pIC50 was 8.40.

Q: How did the pIC50 turn out when `Cc1ccc(-c2c([C@H](OC(C)(C)C)C(=O)O)c(C(F)(F)F)c3c(c2C(F)(F)F)CN(C(=O)OCc2ccccc2)C3)cc1` [Example 2, (S)-2-(2-((benzyloxy)carbonyI)-6-(p-tolyl)-4,7-bis(trifluoromethyl)isoindolin-5-yl)-2-(tert-butoxy)acetic Acid] was run?
A: The pIC50 was 5.36.

Q: How did the pIC50 turn out when `Cc1ccc(-c2c([C@H](OC(C)(C)C)C(=O)O)c(C(F)(F)F)c3c(c2C(F)(F)F)CN(C(=O)c2cccc(F)c2)C3)cc1` [Example 3] was run?
A: Its pIC50 is 8.30.
